The source made the active and inactive calls.
Columns and labels:
[1] = biological target: T1, Carboxy-terminal domain RNA polymerase II polypeptide A small phosphatase 1 (Homo sapiens, UniProt Q9GZU7); assay: inhibitors of CTDSP1, concentration-response testing, biochemical assay, absorbance-based, actives from ultra-high-throughput screening (AID 540297); type: functional
T1 sequence (Q9GZU7 whole entry): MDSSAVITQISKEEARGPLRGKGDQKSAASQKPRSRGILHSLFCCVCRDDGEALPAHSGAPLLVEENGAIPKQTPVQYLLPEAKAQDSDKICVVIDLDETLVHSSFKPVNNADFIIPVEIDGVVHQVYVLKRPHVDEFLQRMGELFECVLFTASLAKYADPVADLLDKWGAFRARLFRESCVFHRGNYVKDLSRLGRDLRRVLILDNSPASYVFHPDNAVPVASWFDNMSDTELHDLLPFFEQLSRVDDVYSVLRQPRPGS

[2] = biological target: FAD-linked sulfhydryl oxidase ALR (Homo sapiens, UniProt P55789); assay: inhibitors of human ALR sulfhydryl oxidase, dose response, biochemical, H2O2 detection, luminescence, cherry-pick (AID 493248)
Sequence of FAD-linked sulfhydryl oxidase ALR (P55789 whole entry): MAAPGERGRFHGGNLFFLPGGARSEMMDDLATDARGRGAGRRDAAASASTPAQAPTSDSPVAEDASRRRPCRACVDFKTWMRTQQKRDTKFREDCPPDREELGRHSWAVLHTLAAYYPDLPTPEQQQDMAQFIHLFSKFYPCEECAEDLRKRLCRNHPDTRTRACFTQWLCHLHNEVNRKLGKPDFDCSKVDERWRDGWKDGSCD

[3] = biological target: Induced myeloid leukemia cell differentiation protein Mcl-1 (Homo sapiens, UniProt Q07820); type: functional
Sequence of Induced myeloid leukemia cell differentiation protein Mcl-1 (Q07820 whole entry): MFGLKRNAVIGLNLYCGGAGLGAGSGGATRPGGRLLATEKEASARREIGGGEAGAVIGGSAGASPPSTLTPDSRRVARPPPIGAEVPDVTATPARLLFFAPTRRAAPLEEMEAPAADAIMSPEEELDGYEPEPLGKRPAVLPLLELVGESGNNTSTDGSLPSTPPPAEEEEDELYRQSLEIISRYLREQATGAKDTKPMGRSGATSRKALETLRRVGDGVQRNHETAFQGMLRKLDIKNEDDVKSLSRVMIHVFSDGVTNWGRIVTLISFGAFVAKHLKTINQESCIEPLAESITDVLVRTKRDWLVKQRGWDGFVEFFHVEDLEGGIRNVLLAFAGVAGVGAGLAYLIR

[4] = biological target: T2, Calpain-2 catalytic subunit (Sus scrofa, UniProt P43367); assay: pig calpain II inhibitor potency, dose response, biochemical, fluorogenic peptide substrate (AID 1420); type: functional
T2 sequence (P43367 whole entry): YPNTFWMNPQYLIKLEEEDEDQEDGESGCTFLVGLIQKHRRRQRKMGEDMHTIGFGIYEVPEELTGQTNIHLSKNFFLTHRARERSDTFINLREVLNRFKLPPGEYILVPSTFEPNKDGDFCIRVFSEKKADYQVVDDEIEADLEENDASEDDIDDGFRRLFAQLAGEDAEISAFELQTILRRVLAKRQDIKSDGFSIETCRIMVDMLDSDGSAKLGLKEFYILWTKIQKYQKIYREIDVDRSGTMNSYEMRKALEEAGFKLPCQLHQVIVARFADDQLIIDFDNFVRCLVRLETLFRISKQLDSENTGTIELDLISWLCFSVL

Large T antigen = Large T antigen (Simian virus 40, UniProt P03070); type: functional, Betapolyomavirus macacae;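 note: Confirmatory-stage PubChem screen for compounds that inhibit SV40 T antigen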
Sequence of Large T antigen (P03070 whole entry): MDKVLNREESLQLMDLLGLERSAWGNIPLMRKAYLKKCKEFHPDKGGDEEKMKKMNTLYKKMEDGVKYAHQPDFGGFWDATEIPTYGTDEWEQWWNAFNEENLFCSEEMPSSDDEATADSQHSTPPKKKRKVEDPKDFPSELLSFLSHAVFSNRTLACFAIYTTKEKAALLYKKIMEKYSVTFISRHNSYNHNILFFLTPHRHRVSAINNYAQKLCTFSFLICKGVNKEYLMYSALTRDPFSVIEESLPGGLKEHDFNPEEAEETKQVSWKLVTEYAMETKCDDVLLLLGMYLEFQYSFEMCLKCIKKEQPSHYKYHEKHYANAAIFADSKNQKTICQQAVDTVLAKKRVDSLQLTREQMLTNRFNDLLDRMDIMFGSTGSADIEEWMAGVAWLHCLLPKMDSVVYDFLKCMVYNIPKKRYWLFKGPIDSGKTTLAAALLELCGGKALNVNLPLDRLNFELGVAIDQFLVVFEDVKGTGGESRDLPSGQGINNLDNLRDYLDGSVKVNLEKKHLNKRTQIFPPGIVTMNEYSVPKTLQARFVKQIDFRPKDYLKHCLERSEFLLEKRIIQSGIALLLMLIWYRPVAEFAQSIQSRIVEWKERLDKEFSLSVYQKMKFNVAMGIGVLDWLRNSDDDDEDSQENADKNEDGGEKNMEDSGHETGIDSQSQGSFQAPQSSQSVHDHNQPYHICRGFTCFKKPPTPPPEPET

[5] = P. falciparum Dd2 growth inhibitors, dose response, SYBR Green, cherry-picked samples (AID 1159567); type: functional, cell-based
BJ [6] = assay: cytotoxicity toward BJ-TERT-LT-ST fibroblasts, dose response, cell-based, RAS-independent, luminescence (AID 1935); type: functional; conditions: Homo sapiens;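 note: BJ fibroblasts immortalized with TERT plus LT and ST oncogenes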
BJ [7] = assay: cytotoxicity toward BJ-TERT fibroblasts, dose response, cell-based, RAS-independent, luminescence (AID 1933); type: functional; conditions: Homo sapiens
[8] = cytotoxicity toward DRD oncogenic fibroblasts, dose response, cell-based, non-viral oncogenic, luminescence (AID 1934); type: functional; conditions: Homo sapiens
BJ [9] = assay: cells; type: functional, cell-based; conditions: Homo sapiens
Protein skinhead-1 = biological target: T3, Protein skinhead-1 (Caenorhabditis elegans, UniProt P34707); type: functional
T3 sequence (P34707 whole entry): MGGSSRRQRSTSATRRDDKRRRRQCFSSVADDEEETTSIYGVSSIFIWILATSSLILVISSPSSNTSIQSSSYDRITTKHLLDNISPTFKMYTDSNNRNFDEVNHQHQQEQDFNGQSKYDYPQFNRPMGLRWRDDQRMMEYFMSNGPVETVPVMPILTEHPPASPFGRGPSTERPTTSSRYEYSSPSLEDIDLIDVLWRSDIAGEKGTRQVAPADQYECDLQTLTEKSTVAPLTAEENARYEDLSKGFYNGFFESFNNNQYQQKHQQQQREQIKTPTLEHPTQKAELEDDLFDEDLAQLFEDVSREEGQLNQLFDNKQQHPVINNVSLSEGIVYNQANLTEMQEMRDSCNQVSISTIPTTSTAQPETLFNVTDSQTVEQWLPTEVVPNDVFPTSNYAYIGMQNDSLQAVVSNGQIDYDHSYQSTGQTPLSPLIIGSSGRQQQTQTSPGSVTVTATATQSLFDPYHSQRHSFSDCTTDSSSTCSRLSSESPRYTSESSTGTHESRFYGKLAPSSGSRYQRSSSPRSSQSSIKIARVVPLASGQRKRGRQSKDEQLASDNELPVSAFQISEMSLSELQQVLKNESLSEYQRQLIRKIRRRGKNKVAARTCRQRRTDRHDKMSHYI

H4 = assay: Luminescence Cell-Based Dose Response HTS to Identify Activators of 5'UTR Stem-Loop Driven Prion Protein mRNA Translation in H4 Neuroglioblastoma Cells. [Related pubchem assays: 1829 (Project Summary), 1814 (Primary HTS)]; type: functional; conditions: Homo sapiens
[10] = Luminescence Cell-Based Dose Confirmation HTS to Identify Activators of 5'UTR Stem-Loop Driven Alpha-Synuclein mRNA Translation in H4 Neuroglioblastoma Cells. [Related pubchem assays: 1829 (Project Summary), 1814 (Primary HTS)]; type: functional
[11] = Luminescence Cell-Based Dose Response HTS to Identify Activators of Luciferase Translation or Activity in H4 […] Cells. [Related pubchem assays: 1829 (Project Summary), 1814 (Primary HTS)]; type: functional
[12] = HepG2 cell cytotoxicity, dose response, cytotoxicity control for Shn3 inhibitor project, CellTiter-Glo, cherry-picked (AID 624134); type: functional, cell-based
[13] = control 3'UTR Renilla luciferase suppression, dose response, counter-screen for Shn3 inhibitor project, cell-based, Clone20-Shn3RL, cherry-picked (AID 624133); type: functional
[14] = Shn3 3'UTR reporter inhibitors, dose response, cell-based, Clone20 osteoblasts, firefly luciferase, cherry-picked (AID 624132); type: functional;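 note: firefly luciferase luminescence from reporter carrying the Shn3 3'UTR in osteoblasts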
[15] = biological target: T4, Zinc finger protein mex-5 (Caenorhabditis elegans, UniProt Q9XUB2); assay: MEX-5/TCR-2 RNA interaction inhibitors, dose response, biochemical, C. elegans, fluorescence polarization (AID 1960)
T4 sequence (Q9XUB2 whole entry): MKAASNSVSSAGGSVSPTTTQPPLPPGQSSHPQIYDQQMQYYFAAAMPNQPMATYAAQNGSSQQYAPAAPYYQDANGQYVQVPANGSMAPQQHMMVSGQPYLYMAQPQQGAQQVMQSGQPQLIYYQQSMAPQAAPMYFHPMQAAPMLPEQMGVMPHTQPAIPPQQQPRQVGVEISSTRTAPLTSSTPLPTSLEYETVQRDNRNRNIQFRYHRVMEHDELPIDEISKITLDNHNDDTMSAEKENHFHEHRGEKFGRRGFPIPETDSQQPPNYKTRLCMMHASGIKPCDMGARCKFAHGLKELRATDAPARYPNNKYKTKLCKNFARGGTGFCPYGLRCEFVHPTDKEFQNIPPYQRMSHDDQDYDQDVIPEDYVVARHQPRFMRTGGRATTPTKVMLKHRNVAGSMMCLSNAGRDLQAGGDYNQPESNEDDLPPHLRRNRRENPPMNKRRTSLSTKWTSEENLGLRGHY

[16] = biological target: T5, RNA-binding protein pos-1 (Caenorhabditis elegans, UniProt G5EF15); assay: inhibitors of POS-1/mex-3 RNA binding, dose response, biochemical, fluorescence polarization (AID 1964);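 note: purified POS-1 fused to maltose binding protein made in E. coli; potency of compounds blocking POS-1 binding to fluorescent RNA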
T5 sequence (G5EF15 whole entry): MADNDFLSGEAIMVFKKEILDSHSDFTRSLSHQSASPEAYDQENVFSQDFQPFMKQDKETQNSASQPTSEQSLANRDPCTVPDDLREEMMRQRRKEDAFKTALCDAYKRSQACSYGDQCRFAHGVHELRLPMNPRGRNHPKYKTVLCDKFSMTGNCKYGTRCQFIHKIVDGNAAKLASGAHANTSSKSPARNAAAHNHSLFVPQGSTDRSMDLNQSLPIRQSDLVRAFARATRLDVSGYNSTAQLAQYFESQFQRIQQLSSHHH

In the case of `Cc1ccc(NC(=O)CSc2ccccc2NC(=O)c2ccccc2Cl)cc1Cl`, the IC50 [1] is reported as 7.38 µM (active).

For `CC(=O)c1ccc(S(=O)(=O)N2CCNC(=O)C2)cc1`, the AC50 [2] was 3.33 µM (active).

For `O=C(Nc1ccc2c(c1)nc1n2CCN(C2CCCCC2)C1)c1ccco1`, the IC50 [3] was 6.52 µM (active).

In the case of `COc1cccc(NC(=O)CN(C)CC(=O)Nc2ccc(Cl)cc2[N+](=O)[O-])c1`, the IC50 [4] is reported as 24 µM (not active).

With `COc1cc(/C=N/NC(=O)CCc2c(C)n[nH]c2C)ccc1O` the IC50 (Large T antigen) was 12.9 µM (active).

With `COc1ccc2c3c([nH]c2c1)[C@@H](CO)N(Cc1cc(F)ccc1F)CC31CN(C(=O)C2CCC2)C1` the AC50 [5] was 6.17 µM (active).

In the case of `Cc1nn2cc(-c3cccc(Cl)c3)cnc2c1Br`, the EC50 (BJ [6]) is reported as 20.3 µM (active), the EC50 (BJ [7]) is reported as 17.4 µM (active) and the EC50 [8] is reported as 16 µM (active). The EC50 (BJ [9]) was 68.2 µM (active).

In the case of `N#Cc1c(-c2ccco2)cc(-c2ccccc2)[nH]c1=O`, the IC50 (Large T antigen) is reported as 68.7 µM (active).

In the case of `Fc1ccc(OCc2nc3ccccc3s2)cc1`, the IC50 (Protein skinhead-1) is reported as > 100 µM (inactive).

For `CC(C)Cn1c(S)nnc1-c1csc2c1CCCC2`, the IC50 [4] was 13.5 µM (not active).

With `NC(=O)c1ccc(-n2nnnc2Oc2ccccc2C(=O)N2CCOCC2)cc1` the EC50 (H4) was > 120 µM (not active), the EC50 [10] was 8.06 µM (active) and the EC50 [11] was 31.4 µM (inconclusive). The IC50 [4] was 3.94 µM (not active).

For `Cc1cccc(NC2=NC(=O)/C(=C/C=C/c3ccco3)S2)c1`, the IC50 [3] was 11.4 µM (active).

In the case of `O=C(CSc1nnc(CNc2ccc(F)cc2)n1Cc1ccco1)NC1CC1`, the IC50 (Protein skinhead-1) is reported as > 100 µM (inactive).

With `NS(=O)(=O)c1ccc(CCNCc2cc(Br)ccc2OCc2ccccc2F)cc1` the AC50 [12] was 36.9 µM (active), the AC50 [13] was 8.75 µM (active) and the AC50 [14] was 4.65 µM (active). The IC50 [4] was > 50 µM (not active).

For `Cc1ccc(S(=O)(=O)N/N=C/c2ccc(O)c(O)c2)cc1[N+](=O)[O-]`, the AC50 [2] was 1.06 µM (active).

With `CC1(C(O)(C#CC[N+]2(C)CCCCC2)c2ccccc2)CCCC1` (configuration not stated) the IC50 [1] was 9.1 µM (active).

For `COc1ccc2c3c(n(C)c2c1)[C@@H](CO)N(C(=O)Nc1ccccc1F)CC31CCN(C)CC1`, the AC50 [5] was 5.95 µM (active).

For `Cc1ccc(SCCNC(=O)CN2C(=O)c3ccccc3S2(=O)=O)cc1`, the IC50 (Protein skinhead-1) was > 100 µM (inactive).

With `CC(C)c1cn([C@H]2C[C@@H]3O[C@H](CO)CC[C@@H]3O[C@@H]2CCc2ccc(C#CC3(O)CCCC3)cc2)nn1` the AC50 [5] was 6.12 µM (active).

For `Cc1ccc2c(c1)N/C(=C\C(=O)CC(C)C)C(=O)O2`, the EC50 [15] was > 300 µM (not active), the IC50 (Large T antigen) was 7.15 µM (active) and the EC50 [16] was > 300 µM (not active).

With `O=C(O)c1cccc(N/N=C/c2cc(Br)cc(Br)c2O)c1` the AC50 [2] was 1.99 µM (active).

From ChEMBL document CHEMBL1201862, “PubChem BioAssay data set” (2004)
